In general, IC50 refers to the concentration at which inhibition is half-maximal.

This note sets out measurements from ChEMBL document CHEMBL2346586, “N-substituted azaindoles as potent inhibitors of Cdc7 kinase” (Bioorg Med Chem Lett, 2013).

Data set [1] addresses T1, Cell division cycle 7-related protein kinase (Homo sapiens, UniProt O00311). Description: Inhibition of CDC7 (unknown origin).
Data set [2] deals with Cyclin-dependent kinase 2 (Homo sapiens, UniProt P24941). The data set is described as follows: Inhibition of CDK2 (unknown origin).
Data set [3] deals with T1, Cell division cycle 7-related protein kinase. The data set is described as follows: Inhibition of CDC7 in human HCT116 cells assessed as MCM2 phosphorylation. The format is cell-based, HCT-116.
The nature of data set [4]: Intrinsic clearance in human liver microsomes. In kind it is ADME, Microsome. The note with it: read-out: CLH.
A short description of data set [5]: Intrinsic clearance in rat liver microsomes. The format is ADME, Microsome. The settings on record: read-out: CLH. For orientation: Liver microsomes are vesicles of endoplasmic reticulum, rich in cytochrome P450 enzymes.
The species entered for another data set is Homo sapiens. Description: Selectivity ratio of IC50 for CDK2 (unknown origin) to IC50 for CDC7 (unknown origin).

T1 sequence (O00311 whole entry): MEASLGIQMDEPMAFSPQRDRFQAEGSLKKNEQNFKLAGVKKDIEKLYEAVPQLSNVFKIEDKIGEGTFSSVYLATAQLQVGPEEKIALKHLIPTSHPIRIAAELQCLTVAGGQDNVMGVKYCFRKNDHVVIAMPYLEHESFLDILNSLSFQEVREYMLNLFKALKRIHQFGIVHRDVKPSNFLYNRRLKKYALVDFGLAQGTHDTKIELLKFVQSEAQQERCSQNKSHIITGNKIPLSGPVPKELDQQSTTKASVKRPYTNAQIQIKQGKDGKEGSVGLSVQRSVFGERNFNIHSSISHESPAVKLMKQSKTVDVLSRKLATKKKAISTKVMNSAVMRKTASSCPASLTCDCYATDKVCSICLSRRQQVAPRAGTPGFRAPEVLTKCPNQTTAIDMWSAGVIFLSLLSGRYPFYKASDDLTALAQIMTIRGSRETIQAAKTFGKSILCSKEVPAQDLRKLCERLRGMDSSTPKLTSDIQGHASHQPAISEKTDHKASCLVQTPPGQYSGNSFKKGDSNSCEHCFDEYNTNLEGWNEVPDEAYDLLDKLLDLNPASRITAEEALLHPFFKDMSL

With `C#Cc1ccc2ccn(-c3ccnc(N)n3)c2c1`, the values for the half-maximal inhibitory concentration (IC50) in data set [1] and in data set [2] were 760 nM and 10 µM, respectively.

For the molecule `N#Cc1ccc2ccn(-c3ccnc(N)c3)c2c1`, the IC50 in data set [1] is 9000 nM; in data set [3], more than 50 µM; in data set [2] it was 39 µM. Besides, the microsomal CLint in data set [4] amounted to 201 µL/min/mg; in data set [5], 122 µL/min/mg.

Regarding `Nc1nccc(-n2cc(-c3cccnc3Cl)c3cnccc32)n1`, the concentration for half-maximal inhibition (IC50) in data set [1] was determined as 7 nM; in data set [3] it was 0.85 µM; in data set [2] it was 0.31 µM. Moreover, the Ratio IC50 in the data set listed under Homo sapiens was determined as 44. Besides, the microsomal CLint in data set [4] is 21 µL/min/mg; in data set [5] it was 72 µL/min/mg.

For `N#Cc1ccc2ccn(-c3cccc(N)n3)c2c1`, the half-inhibitory concentration (IC50) was 10400 nM in data set [1] and 45 µM in data set [2].

Consider `Nc1nccc(-n2cc(-c3cccnc3)c3cnccc32)n1`, for which the values for the IC50 in data set [1] and in data set [2] were 160 nM and 1.1 µM, respectively. The Ratio IC50 in the data set listed under Homo sapiens turned out to be 7.

In the case of `Nc1nccc(-n2ccc3cnc(Cl)cc32)n1`, the 50% inhibitory concentration (IC50) is 360 nM in data set [1], more than 50 µM in data set [3] and 38 µM in data set [2]. Besides, the Ratio IC50 in the data set listed under Homo sapiens was more than 100. Further, the microsomal CLint in data set [4] was 104 µL/min/mg; in data set [5] it was 134 µL/min/mg.

For `Nc1nccc(-n2cc(C3=CCOCC3)c3cnccc32)n1`, the IC50 in data set [1] was 160 nM; in data set [2], 0.16 µM.

`N#Cc1ccc2ccn(-c3cc(N)ncn3)c2n1`: the half-maximal inhibitory concentration (IC50) in data set [1] was 9 nM; in data set [3], 1.37 µM; in data set [2] it was more than 83 µM. The figures for the microsomal CLint in data set [4] and in data set [5] were 34 µL/min/mg and 46 µL/min/mg, respectively.

`N#Cc1ccc2ccn(-c3ccncn3)c2c1`: the IC50 in data set [1] is 1500 nM; in data set [2], more than 83 µM.

As for `Nc1nccc(-n2ccc3ccccc32)n1`, the IC50 in data set [1] is 4700 nM; in data set [3], more than 50 µM; in data set [2], 28.5 µM. Further, the microsomal CLint in data set [4] was 387 µL/min/mg; in data set [5], 375 µL/min/mg.

Turning to `N#Cc1cc2c(ccn2-c2ccnc(N)n2)cn1`, the 50% inhibitory concentration (IC50) in data set [1] is 1240 nM; in data set [2] it was more than 44 µM. For the same molecule, the figures for the microsomal CLint in data set [4] and in data set [5] were 94 µL/min/mg and 49 µL/min/mg, respectively.

On to `Nc1nccc(-n2cc(-c3cccc(Cl)c3)c3cnccc32)n1`, for which the IC50 was 160 nM in data set [1] and more than 83 µM in data set [2]. Also, in the data set filed under Homo sapiens, the Ratio IC50 is more than 500.

Turning to `Nc1nccc(-n2cc(-c3cc[nH]n3)c3cnccc32)n1`, the IC50 amounted to 580 nM in data set [1] and 0.55 µM in data set [2].

Regarding `CNc1nccc(-n2ccc3ccc(C#N)cc32)n1`, the values for the concentration for half-maximal inhibition (IC50) in data set [1] and in data set [2] were 25 nM and 2.7 µM, respectively.

As to `Nc1nccc(-n2ccc3ncccc32)n1`, the values for the 50% inhibitory concentration (IC50) in data set [1] and in data set [2] were 12600 nM and 21 µM, respectively. Also, the microsomal CLint in data set [4] was found to be 60 µL/min/mg; in data set [5] it was 50 µL/min/mg.

For the molecule `Nc1nccc(-n2ccc3cccnc32)n1`, the half-maximal inhibitory concentration (IC50) was 26700 nM in data set [1], more than 50 µM in data set [3] and 42 µM in data set [2]. Further, the microsomal CLint in data set [4] worked out at 338 µL/min/mg; in data set [5], 282 µL/min/mg.

As to `Nc1nccc(-n2ccc3ccc([N+](=O)[O-])cc32)n1`, the results for the IC50 in data set [1] and in data set [2] were 82 nM and more than 30.6 µM, respectively.

Consider `Nc1nccc(-n2ccc3ccc(Cl)cc32)n1`, for which the half-inhibitory concentration (IC50) in data set [1] was 66 nM; in data set [2], 3.7 µM. The Ratio IC50 in the data set filed under Homo sapiens was found to be 56.

On to `Nc1nccc(-n2ccc3ccc(Br)cc32)n1`, for which the IC50 in data set [1] turned out to be 350 nM; in data set [2], 8.2 µM.

Consider `N#Cc1ccc2ccn(-c3cc(N)ncn3)c2c1`, for which the half-maximal inhibitory concentration (IC50) in data set [1] was 2700 nM; in data set [2], more than 83 µM.

For the molecule `N#Cc1ccc2ccn(-c3ccnc(N)n3)c2c1`, the half-maximal inhibitory concentration (IC50) stood at 75 nM in data set [1], 5 µM in data set [3] and 16.5 µM in data set [2]. Also, the Ratio IC50 in the data set filed under Homo sapiens was determined as 220. Moreover, the figures for the microsomal CLint in data set [4] and in data set [5] were 430 µL/min/mg and 124 µL/min/mg, respectively.

Take `Nc1nccc(-n2ccc3ccc(F)cc32)n1`: the IC50 in data set [1] is 156 nM; in data set [2], 34 µM.

Consider `Nc1nccc(-n2cc(-c3ccccc3Cl)c3cnccc32)n1`, for which the figures for the IC50 in data set [1] and in data set [2] were 11 nM and 0.11 µM, respectively.

For `N#Cc1ccc2ccn(-c3nccc(N)n3)c2c1`, the half-inhibitory concentration (IC50) in data set [1] is 8800 nM; in data set [2], more than 29 µM.

As to `Nc1nccc(-n2ccc3ccc(O)cc32)n1`, the IC50 in data set [1] is 3300 nM; in data set [2] it was 5 µM.

`Nc1nccc(-n2cc(-c3ccccc3)c3cnccc32)n1`: the IC50 is 104 nM in data set [1] and 0.31 µM in data set [2]. Also, in the data set filed under Homo sapiens, the Ratio IC50 was 3.

Turning to `Nc1nccc(-n2ccc3cnccc32)n1`, the IC50 came to 980 nM in data set [1] and 3.7 µM in data set [2]. For the same molecule, the microsomal CLint in data set [4] was 62 µL/min/mg; in data set [5], 101 µL/min/mg.

For the molecule `Nc1nccc(-n2ccc3ccc(C(F)(F)F)cc32)n1`, the IC50 in data set [1] worked out at 1100 nM; in data set [2], 17 µM.

As to `Nc1nccc(-n2cc(-c3ccncc3)c3cnccc32)n1`, the IC50 stood at 250 nM in data set [1] and 0.16 µM in data set [2].

With `Nc1nccc(-n2cc(-c3ccoc3)c3cnccc32)n1`, the half-maximal inhibitory concentration (IC50) stood at 120 nM in data set [1] and 0.1 µM in data set [2].

Regarding `Nc1nccc(-n2cc(-c3ccc(Cl)cc3)c3cnccc32)n1`, the 50% inhibitory concentration (IC50) in data set [1] amounted to 330 nM; in data set [2] it was 0.06 µM.

As to `Nc1nccc(-n2cc(-c3cccnc3Cl)c3cnc(Cl)cc32)n1`, the concentration for half-maximal inhibition (IC50) was 30 nM in data set [1], 2.3 µM in data set [3] and more than 83 µM in data set [2]. Also, the Ratio IC50 in the data set listed under Homo sapiens is more than 2700. Besides, the microsomal CLint was 30 µL/min/mg in data set [4] and 102 µL/min/mg in data set [5].

As to `Nc1nccc(-n2ccc3ccncc32)n1`, the results for the IC50 in data set [1] and in data set [2] were 930 nM and 45.1 µM, respectively. For the same molecule, the microsomal CLint in data set [4] was 134 µL/min/mg; in data set [5], 64 µL/min/mg.

On to `N#Cc1ccc2c(ccn2-c2ccnc(N)n2)c1`, for which the 50% inhibitory concentration (IC50) in data set [1] is 8500 nM; in data set [2] it was more than 29.1 µM.

Regarding `N#Cc1cnc2ccn(-c3ccnc(N)n3)c2c1`, the values for the 50% inhibitory concentration (IC50) in data set [1] and in data set [2] were 5300 nM and more than 83 µM, respectively. Also, the microsomal CLint amounted to 108 µL/min/mg in data set [4] and 64 µL/min/mg in data set [5].
